Columns and labels:
Gs and Gi proteins = details: cited from earlier work
beta-arrestin1 = test: Beta-arrestin 1 levels in rat brain areas after chronic antidepressant treatment (immunoblot); format: in vivo; details: three weeks of treatment
Description: On the 22nd day, rats were decapitated, blood collected and brain regions immediately dissected. Tissue homogenization was carried out in a glass-teflon homogenizer with ice-cold buffer containing 20 mM Tris.Cl pH 7.4, 2 mM EDTA, 1 mM DTT and antiprotease cocktail (Sigma). After initial centrifugation at 800 g for 5 min, the supernatant was collected and further centrifuged at 48,000 g for 30 min using a Beckman Ti80 rotor. The resulting supernatant and pellet were separated: the supernatant fraction was collected and centrifuged at 120,000 g for 45 min and the supernatant obtained was used for all measurements; the pellet was resuspended in the homogenization buffer and the pellet fraction obtained was used for all measurements.
On the day of assay, cytosolic and/or membrane fraction were thawed. 10 μg total protein aliquots were taken for protein separation by SDS-(10%) polyacrylamide gel electrophoresis. The resulting proteins were transferred to nitrocellulose paper by use of electroblotting apparatus. Blots were blocked with 5% BSA for 1 hr in TBS containing 0.1% Tween-20 (TTBS) and incubated overnight with a monoclonal antibody to beta-arrestin1 (Transduction Labs, diluted 1:250). The immune bands were detected by subsequent incubation with anti-mouse IgG labeled with horseradishperoxidase using the Enhanced Chemiluminescence Western Blot Detection System (Amersham) followed by exposure to Kodak X-Omat film. […] Peak heights of immunoreactive bands presented as arbitrary absorbance units, were determined with a computer-assisted imaging system for semi-quantitative measurements. 10 μg rat cortical membranes run in each blot as a standard reference.
Beta-arrestin1 levels were measured in three rat brain areas: cortex, hippocampus and striatum.

Compound	Dopamine-induced Gs hyperfunction of untreated patients with schizophrenia (Gs and Gi proteins; leukocytes of patients with schizophrenia)	Gs level and function (Gs and Gi proteins; patients with schizophrenia, reduction correlated with intensity of Parkinsonian side effects)	Cytosolic beta-arrestin-1 in rat cortex (beta-arrestin1; rat cortex, cytosolic fraction, 10 mg/kg twice daily intragastrically, compared with control group)	Membrane beta-arrestin 1 in rat cortex (beta-arrestin1; rat cortex, membrane fraction, 10 mg/kg twice daily intragastrically, compared with control group)	Cytosolic beta-arrestin-1 in rat hippocampus (beta-arrestin1; rat hippocampus, cytosolic fraction, 10 mg/kg twice daily intragastrically, compared with control group)	Beta-arrestin 1 levels in striatum (beta-arrestin1; rat striatum)
O=C(CCCN1CCC(O)(c2ccc(Cl)cc2)CC1)c1ccc(F)cc1 [haloperidol]	corrected	significant decrease in Gs level and function to below normal levels				
CN(C)CCCN1c2ccccc2CCc2ccccc21 [imipramine]			165.6%	156.8%	179.2%	no alterations

— US7736621B2, “Methods for gauging the effect of a depression treatment by determining the levels of beta-arrestin 1 and G-protein coupled receptor kinase 2” (Hypatia Ltd., priority 2004, dated 2010)
